Experimental findings from patent US12616753B2, “HSP70 inhibitors and methods of using same” (THE WISTAR INSTITUTE, priority 2020, dated 2026) are described below.

Test [1] has as its system CRC cell lines (SW620, HT-29, HCT 116+/−p53, RKO, and LS411N). Briefly: Alamar Blue cell viability assay, human CRC panel. In kind it is cell-based. The following applies: SW620, 72 hours. As for the experimental part:
FIGS. 4A-4F show AP-4-139B is efficacious as a single agent against human CRC in vitro and in vivo. FIG. 4A: Three CRC cell lines (HT-29, LS411N, and SW620) were treated with 10 μM of PET-16 or AP-4-139B for 48 hours. Cell were then subjected to viability assays using Trypan Blue exclusion. *** p<0.001. […] FIGS. 4B-4C: A panel of six CRC cell lines (SW620, HT-29, HCT 116+/−p53, RKO, and LS411N) were plated at a density of 1,000 cells per well in 96-well plates. The next day, cells were treated with the indicated inhibitors for 72 hours. Cells were then subjected to the Alamar Blue cell viability assays. Shown are representative IC50 values of an average of six technical replicates and two biological replicates. FIG. 4D: 2.5×10^6 HT-29 cells were injected subcutaneously into the right flank of NSG mice. Once tumors reached an approximate volume of 100 mm^3, mice were separated randomly into two groups: control vs. AP-4-139B. Mice were treated with 12.5 mg/kg AP-4-139B three times a week. All mice were euthanized 22 days after the start of treatment. Tumor volumes were recorded using digital calipers and using the formula v=length×width^2×0.52. *** p<0.001. n=10 mice per group. FIG. 4E: Immunohistochemistry (IHC) analysis of HT-29 xenograft tumors treated with AP-4-139B. Shown are representative images (4-6 random fields of view per condition) of Ki67 (proliferation) and Cleaved Lamin A (cell death). n=4 mice per group. Scale bar=100 μm. Respective IgG antibody was used as the negative control.
(In general: Resazurin is reduced to fluorescent resorufin, in cell work by metabolically active cells.)

In the next test the target is T1, full length human HSP70 (Homo sapiens, UniProt P0DMV8).
T1 construct: Five μL of 30 nM full length human HSP70 in assay buffer
T1 sequence (P0DMV8 whole entry): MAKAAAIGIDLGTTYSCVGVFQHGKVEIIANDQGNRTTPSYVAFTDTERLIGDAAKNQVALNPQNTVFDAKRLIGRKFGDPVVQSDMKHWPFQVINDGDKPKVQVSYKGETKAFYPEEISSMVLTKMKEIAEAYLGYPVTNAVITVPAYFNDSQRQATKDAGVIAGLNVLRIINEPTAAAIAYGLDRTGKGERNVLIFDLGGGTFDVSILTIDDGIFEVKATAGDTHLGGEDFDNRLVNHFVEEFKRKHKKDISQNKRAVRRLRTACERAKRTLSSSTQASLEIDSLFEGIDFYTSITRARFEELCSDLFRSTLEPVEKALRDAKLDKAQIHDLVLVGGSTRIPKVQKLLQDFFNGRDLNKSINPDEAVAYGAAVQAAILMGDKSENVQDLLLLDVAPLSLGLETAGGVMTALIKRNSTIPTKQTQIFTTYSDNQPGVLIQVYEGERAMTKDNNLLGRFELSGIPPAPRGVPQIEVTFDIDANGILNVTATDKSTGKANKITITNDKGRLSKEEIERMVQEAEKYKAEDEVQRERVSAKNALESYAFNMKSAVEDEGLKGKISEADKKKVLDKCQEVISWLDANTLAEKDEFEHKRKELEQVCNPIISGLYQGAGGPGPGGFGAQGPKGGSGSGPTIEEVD
Kind of test: HSP70 mediated ATPase assay (Transcreener ADP-FI). In kind it is biochemical. As for the experimental part: FIGS. 1A-1D show ATPase inhibition and direct binding of a novel HSP70 inhibitor. FIG. 1A: Compounds AP-3-97 and AP-4-139B are direct inhibitors of HSP70. HSP70 mediated ATPase activity was assessed using the TRANSCREENER® ADP-FI assay. Five microliters of 30 nM purified human HSP70 in assay buffer was added to test compounds for 30 minutes, followed by addition of excess ATP. After 15 minutes, reactions were stopped and fluorescence was assessed on a plate reader. Data are normalized to percent inhibition, where 100% is the value in the absence of HSP70, and 0% is the value in the presence of HSP70. Compounds shown include PET-16 (positive control) and the novel HSP70 inhibitors AP-3-97 and AP-4-139B. VY-3-277 was used as a negative control. FIG. 1B: Compound AP-4-139B binds HSP70. Whole cell extracts (WCE) from H1299 cells were incubated with 10 μM Biotin or with a Biotin-labeled variant of AP-4-139B (Biotin-AP-4-139B) for 5 hours. Biotin-AP-4-139B containing complexes were captured using NeutrAvidin resins and separated by SDS-PAGE. The Coomassie-stained protein band of approximately 70 kDa was excised and subjected to tryptic digestion and liquid chromatography-tandem mass spectrometry, and identified to be HSP70. FIG. 1C: H1299 cells were pre-treated with 10 μM of VY-3-277, PET-16, or AP-4-139B for 1 hour prior to the addition of 10 μM Biotin-AP-4-139B for 5 hours. Biotin-AP-4-139B containing complexes were captured by NeutrAvidin resins and immunoblotted using the indicated antibodies following SDS-PAGE. Whole cell extracts (WCE) were examined for the expression of HSP70 (input) and GRP75 (input) by Western blot analysis. FIG. 1D: Compound AP-4-139B directly binds purified human HSP70. […] Data were analyzed using the evaluation software from Biacore and the resulting sensograms were exported and re-plotted in GraphPad Prism.
HSP70 mediated ATPase activity was measured using the Transcreener® ADP-FI assay (BellBrook Labs). […] After 30 minutes, fluorescence at 560/620 nm was measured using the Envision plate reader. […]

Test [2] deals with N-terminal HIS tagged HSP70 (Homo sapiens, UniProt P0DMV8). Briefly: Small molecule binding to HSP70 using SPR (Biacore T200). As for the experimental part: SPR experiments were conducted using the Biacore T200. Approximately 20,000 RU of N-terminal HIS tagged HSP70 was immobilized on a multi-dentate NTA derivatized linear carboxylate sensor chip (NICH1500M, Xantec Bioanalytics). The running buffer was PBS containing 2 mM MgCl2, 0.05% Tween, and 5% DMSO. Test compounds were diluted at 20× final concentration in 100% DMSO and then diluted into running buffer without DMSO so that the DMSO concentrations in both the sample and the running buffer were similar. Flow rate was 30 μL/min, contact time for each sample concentration was 30 seconds, followed by a 60 second dissociation time. Data were analyzed using the Biacore evaluation software and the resulting sensograms exported and re-plotted in GraphPad Prism.
N-terminal HIS tagged HSP70, sequence (P0DMV8 whole entry): as above
The next studies sought to determine whether AP-4-139B interacts directly with HSP70. To accomplish this, full-length His-tagged human HSP70 was used, and it was immobilized on a high affinity poly-Ni-NTA sensor chip for surface plasmon resonance experiments on a Biacore T200. This HSP70-loaded chip was incubated with AP-4-139B or the negative control VY-3-277. As a positive control the adenosine-derived HSP70 inhibitor Ver-155008 was used (Massey et al., Cancer Chemother Pharmacol. 2010 August; 66(3):535-45).
On the technique in general: Surface plasmon resonance follows binding to a sensor surface in real time, without labels.

The next test relates to MC38 and HT-29 cells. Kind of test: Extracellular ATP release (CellTiter-Glo). It counts as cell-based. As to conditions: MC38 cells, increasing concentrations, 3 hours. As for the experimental part:
FIG. 6A: 1×10^6 MC38 cells were injected subcutaneously into the right flank of 6-8-week-old male C57Bl/6 mice. Once tumors reached an approximate volume of 100 mm^3, mice were treated with AP-4-139B (10 mg/kg) every 48 hours. 20 days after the start of treatment, tumors were excised, weighed, minced and digested. Tumor-infiltrating and splenic conventional CD4 (cCD4) (Live CD45^+ DUMP^− CD3^+CD4^+Foxp3^−), Tregs (Live CD45^+ DUMP^− CD3^+CD4^+Foxp3^+), CD8 (Live CD45^+ DUMP^− CD3^+CD8^+) T-cells, and Dendritic Cells (Live CD45^+ DUMP^− CD3^−CD11c^+MHCII^+) numbers were assessed by flow cytometry. * p<0.05, n.s. not significant. n=8 mice per group. FIG. 6B: MC38 and HT-29 cells were treated with the indicated concentrations of AP-4-139B for either 8 or 24 hours; media was collected and subjected to WB for HMGB1. Data shown are representative of three technical replicates. FIG. 6C: MC38 and HT-29 cells were treated with the indicated concentrations of AP-4-139B for three hours and then assayed for extracellular ATP release. Each graphical representation indicates the mean±the standard deviation of three independent experiments relative to control (DMSO-treated) cells.
FIG. 6D: MC38 cells were treated with 5 μM AP-4-139B for 24 hours and subjected to flow cytometry, using Alexa488-tagged calreticulin antibody. *** p<0.001, n=4 biological replicates performed in duplicate. FIG. 6E: MC38 cells were treated with increasing concentrations of AP-4-139B, G-TPP, 17-AAG or Metformin for 3 hours and then assayed for extracellular ATP release. Three independent cultures were assayed for each treatment, and DMSO-treated cells were used as internal controls. Error bars represent standard deviation (SD).
The XF Cell Mito Stress Test was performed. Briefly, HT-29 (10,000 cells/well), IMR90 (15,000 cells/well), and 1205Lu (15,000 cells/well) were plated in Seahorse 96-well cell culture microplates, treated with the respective inhibitors for 24 hours, and subjected to the Seahorse XF Cell Mito Stress Test, according to the manufacturer's protocol (Agilent Technologies). For extracellular HMGB1 release, 1×10^6 MC38 cells were plated in 10-cm dishes. The next day, cells were treated with the indicated concentrations of AP-4-139B for 8 or 24 hours in serum-free media. Media was collected and spun down at 2,000 rpm for 5 minutes to pellet any remaining cells or debris. Media was then transferred to Amicon Ultra 15, 10K tubes and spun down at 4,000 rpm for 45 minutes, according to the manufacturer's protocol. […] For extracellular ATP release, ATP was measured using the CellTiter-Glo Kit (Promega catalog #G7570). […] 10 μl of CellTiter-Glo Reaction Mix was then mixed with 10 μl of culture media; the luminescence signal was detected using a luminometer.
On the technique in general: In ATP-based viability assays light output follows the ATP content of the culture.

With `O=c1[nH]cc(F)c(=O)[nH]1` [5-FU, 5-fluoro-uracil], the “sensitivity of SW620 cells” value in test [1] was “highly resistant”. On the same count and under the same terms, next, `O=C1[O][Pt]2([NH][C@@H]3CCCC[C@H]3[NH]2)[O]C1=O` [oxaliplatin]: “highly resistant”.

Consider `O=S(=O)(NCCCCCC[P+](c1ccccc1)(c1ccccc1)c1ccccc1)c1ccc2c(c1)oc1ccccc12` [AP-3-97, (6-(Dibenzo[b,d]furan-3-sulfonamido)hexyl)triphenylphosphonium bromide], for which the “inhibition of HSP70 ATPase activity (in words)” value at full length human HSP70 was “markedly superior potency”.

For `N#Cc1ccc(COC[C@H]2O[C@@H](n3c(NCc4ccc(Cl)c(Cl)c4)nc4c(N)ncnc43)[C@H](O)[C@@H]2O)cc1` [Ver-155008, reference compound], in test [2], the “binding to sensor chips loaded with HSP70” value was “reproducibly bound in concentration-dependent manner”. Consider `CN(C)C(=N)N=C(N)N` [metformin, reference compound], for which the “ATP release, comparison of compounds” value in the test with MC38 and HT-29 cells is on record as “induced ATP release, albeit to a lesser extent”. Same read-out and setting: next, `C=CCNC1=C2C[C@@H](C)C[C@H](OC)[C@H](O)[C@@H](C)/C=C(\C)[C@H](OC(N)=O)[C@@H](OC)/C=C\C=C(/C)C(=O)NC(=CC1=O)C2=O` [17-AAG, reference compound]: “induced ATP release, albeit to a lesser extent”.
